Paper PMC8468421, “Synthesis and Biological Evaluation of 1,2,3-Triazole Tethered Thymol-1,3,4-Oxadiazole Derivatives as Anticancer and Antimicrobial Agents” (Pharmaceuticals, 2021)

Tests used:
E. coli (ATCC 31218) = test: Antimicrobial activity, agar well zone of inhibition, E. coli; assay type: cell-based, Escherichia coli; details: 10 μL of 10 mg/mL in 50% DMSO per well, overnight 37 °C, --- = no zone of inhibition; for zone of inhibition at 10000 µg/mL: Escherichia coli, ATCC31218
Protocol: (§1) The antimicrobial activity of the final compounds was performed by reported methods.The bacterial strains, E. coli (Gram negative), S. aureus (Gram positive), and fungi, Candida albicans, were used for the study. Luria broth Agar and Sabouraud Dextrose Agar were prepared into a petri dish using 25 mL of autoclaved media; 100 μL of diluted broth of freshly prepared E. coli, S. aureus, and C. albicans were spread on Luria Broth Agar and Sabouraud Agar plates, respectively. Then, 7 wells of 50 μL capacity were punched on each plate. Samples 5–18 (10 μL of 10 mg/mL standard prepared in 50% DMSO) were placed in each plate’s well in different plate sets. All the plates were incubated for overnight at 37 °C in an incubator shaker. The inhibition zone was calculated in triplicate.

S. aureus (ATCC 29213) = test: Antimicrobial activity, agar well zone of inhibition, S. aureus; assay type: cell-based, Staphylococcus aureus; details: 10 μL of 10 mg/mL in 50% DMSO per well, overnight 37 °C, --- = no zone of inhibition; for zone of inhibition at 10000 µg/mL: Staphylococcus aureus, ATCC29213
Protocol: as §1

C. albicans (ATCC 10231) = test: Antifungal activity, agar well zone of inhibition, C. albicans; assay type: cell-based, Candida albicans; details: 10 μL of 10 mg/mL in 50% DMSO per well, overnight 37 °C, --- = no zone of inhibition; for zone of inhibition at 10000 µg/mL: Candida albicans, ATCC10231
Protocol: as §1

MCF-7 = test: Antiproliferative activity, MTT assay, MCF-7; details: for IC50: Homo sapiens, MCF7, read-out: Cytotoxicity IC50 MCF-7; for times active relative to 5-florouracil, MCF-7: (IC50 18.74 μM)
Excerpt: (§2) The compounds were screened on breast (MCF-7), liver (HepG2), and colorectal (HCT-116) cancer cells, obtained from American Type culture Collection (ATCC); 0.1% of DMSO was used as a vehicle control.

HCT-116 = test: Antiproliferative activity, MTT assay, HCT-116; details: Homo sapiens, HCT-116, read-out: Cytotoxicity IC50 HCT-116
Excerpt: as §2

HepG2 = test: Antiproliferative activity, MTT assay, HepG2; details: for IC50: Homo sapiens, HepG2, read-out: Cytotoxicity IC50 HepG2
Excerpt: as §2

[1] = molecular target: Thymidylate synthase (TS) (Homo sapiens, UniProt P04818); test: Thymidylate synthase (TS) enzymatic assay
Thymidylate synthase (TS), sequence (P04818 whole entry): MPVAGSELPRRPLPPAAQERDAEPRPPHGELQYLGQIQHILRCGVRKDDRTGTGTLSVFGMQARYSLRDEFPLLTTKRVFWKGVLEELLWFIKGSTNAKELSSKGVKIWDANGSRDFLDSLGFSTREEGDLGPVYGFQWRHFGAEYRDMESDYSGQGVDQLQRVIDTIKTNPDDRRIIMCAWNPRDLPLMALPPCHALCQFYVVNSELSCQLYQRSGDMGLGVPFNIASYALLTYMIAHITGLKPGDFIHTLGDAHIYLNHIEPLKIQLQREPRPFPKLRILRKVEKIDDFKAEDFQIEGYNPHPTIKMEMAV

Row | melting point | IC50 [1] | SMILES | zone of inhibition E. coli (E. coli (ATCC 31218)) | zone of inhibition at 10000 µg/mL (E. coli (ATCC 31218)) | zone of inhibition S. aureus (S. aureus (ATCC 29213)) | zone of inhibition at 10000 µg/mL (S. aureus (ATCC 29213)) | zone of inhibition C. albicans (C. albicans (ATCC 10231)) | zone of inhibition at 10000 µg/mL (C. albicans (ATCC 10231)) | IC50 (MCF-7) | IC50 (HCT-116) | IC50 (HepG2) | fold active relative to 5-FU, HepG2 (HepG2) | times active relative to 5-florouracil, MCF-7 (MCF-7)
1 | 58 to 60 °C |  | C#CCSc1nnc(COc2cc(C)ccc2C(C)C)o1 [Compound 5, 2-((2-isopropyl-5-methylphenoxy)methyl)-5-(prop-2-ynylthio)-1,3,4-oxadiazole] | 12 ± 0.32 mm | 12 mm | 9 ± 0.30 mm | 9 mm | 10 ± 0.32 mm | 10 mm |  |  |  |  | 
2 |  |  | O=c1[nH]cc(F)c(=O)[nH]1 [Compound 5-FU, 5-fluorouracil, reference compound] |  |  |  |  |  |  | 18.7 µM | 30.7 µM | 28.7 µM |  | 
3 | 88 to 90 °C |  | Cc1ccc(C(C)C)c(OCc2nnc(SCc3cn(-c4ccccc4)nn3)o2)c1 [Compound 6, 4-((5-((2-isopropyl-5-methylphenoxy)methyl)-1,3,4-oxadiazol-2-ylthio)methyl)-1-phenyl-1H-1,2,3-triazole] | 14 ± 0.38 mm | 14 mm | 10 ± 0.40 mm | 10 mm |  |  | 22.5 µM | 36.5 µM | 41.6 µM |  | 
4 | 81 to 83 °C | 3.52 ± 1.2 µM | COc1ccccc1-n1cc(CSc2nnc(COc3cc(C)ccc3C(C)C)o2)nn1 [Compound 7, 4-((5-((2-isopropyl-5-methylphenoxy)methyl)-1,3,4-oxadiazol-2-ylthio)methyl)-1-(2-methoxyphenyl)-1H-1,2,3-triazole] | 12 ± 0.34 mm | 12 mm | 12 ± 0.34 mm | 12 mm |  |  | 2.4 µM | 3.1 µM | 1.8 µM | 16 fold | 
5 | 166 to 168 °C | 3.98 ± 1.1 µM | Cc1ccc(C(C)C)c(OCc2nnc(SCc3cn(-c4cccc(C(=O)O)c4)nn3)o2)c1 [Compound 8, 3-(4-((5-((2-isopropyl-5-methylphenoxy)methyl)-1,3,4-oxadiazol-2-ylthio)methyl)-1H-1,2,3-triazol-1-yl)benzoic acid] |  |  | 10 ± 0.40 mm | 10 mm |  |  | 3.9 µM | 5.8 µM | 5.3 µM |  | 
6 | 86 to 88 °C | 1.95 ± 0.9 µM | Cc1ccc(C(C)C)c(OCc2nnc(SCc3cn(-c4ccccc4O)nn3)o2)c1 [Compound 9, 2-(4-((5-((2-isopropyl-5-methylphenoxy)methyl)-1,3,4-oxadiazol-2-ylthio)methyl)-1H-1,2,3-triazol-1-yl)phenol] | 12 ± 0.36 mm | 12 mm | 12 ± 0.34 mm | 12 mm | 10 ± 0.032 mm | 10 mm | 1.1 µM | 2.6 µM | 1.4 µM | 20 fold | 17 times
7 | 90 to 92 °C | 2.18 ± 1.7 µM | Cc1ccc(C(C)C)c(OCc2nnc(SCc3cn(-c4ccccc4Cl)nn3)o2)c1 [Compound 10, 4-((5-((2-isopropyl-5-methylphenoxy)methyl)-1,3,4-oxadiazol-2-ylthio)methyl)-1-(2-chlorophenyl)-1H-1,2,3-triazole] |  |  |  |  |  |  | 1.3 µM | 3.8 µM | 2.5 µM |  | 15 times
8 | 92 to 94 °C | 4.24 ± 0.8 µM | Cc1ccc(C(C)C)c(OCc2nnc(SCc3cn(-c4cccc(Cl)c4)nn3)o2)c1 [Compound 11, 4-((5-((2-isopropyl-5-methylphenoxy)methyl)-1,3,4-oxadiazol-2-ylthio)methyl)-1-(3-chlorophenyl)-1H-1,2,3-triazole] |  |  |  |  |  |  | 4.9 µM | 16.3 µM | 18.6 µM |  | 
9 | 84 to 86 °C |  | Cc1ccc(C(C)C)c(OCc2nnc(SCc3cn(-c4ccc(Cl)cc4Cl)nn3)o2)c1 [Compound 12, 4-((5-((2-isopropyl-5-methylphenoxy)methyl)-1,3,4-oxadiazol-2-ylthio)methyl)-1-(2,4-dichlorophenyl)-1H-1,2,3-triazole] | 10 ± 0.38 mm | 10 mm |  |  | 12 ± 0.036 mm | 12 mm | 59.4 µM | 47.3 µM | 40.6 µM |  | 
10 | 114 to 116 °C |  | Cc1ccc(C(C)C)c(OCc2nnc(SCc3cn(-c4ccc(Br)cc4)nn3)o2)c1 [Compound 13, 4-((5-((2-isopropyl-5-methylphenoxy)methyl)-1,3,4-oxadiazol-2-ylthio)methyl)-1-(4-bromophenyl)-1H-1,2,3-triazole] | 11 ± 0.34 mm | 11 mm |  |  |  |  | 65.3 µM | 78.7 µM | 69.4 µM |  | 
11 | 72 to 74 °C |  | Cc1ccc(C(C)C)c(OCc2nnc(SCc3cn(-c4cccc(Br)c4)nn3)o2)c1 [Compound 14, 4-((5-((2-isopropyl-5-methylphenoxy)methyl)-1,3,4-oxadiazol-2-ylthio)methyl)-1-(3-bromophenyl)-1H-1,2,3-triazole] | 9 ± 0.32 mm | 9 mm |  |  |  |  | 41.8 µM | 32.8 µM | 23.7 µM |  | 
12 | 118 to 120 °C |  | Cc1ccc(C(C)C)c(OCc2nnc(SCc3cn(-c4ccc(F)cc4)nn3)o2)c1 [Compound 15, 4-((5-((2-isopropyl-5-methylphenoxy)methyl)-1,3,4-oxadiazol-2-ylthio)methyl)-1-(4-florophenyl)-1H-1,2,3-triazole] |  |  |  |  |  |  | 23.2 µM | 31.4 µM | 49.2 µM |  | 
13 | 130 to 132 °C |  | Cc1ccc(C(C)C)c(OCc2nnc(SCc3cn(-c4ccc(F)cc4F)nn3)o2)c1 [Compound 16, 4-((5-((2-isopropyl-5-methylphenoxy)methyl)-1,3,4-oxadiazol-2-ylthio)methyl)-1-(2,4-diflorophenyl)-1H-1,2,3-triazole] | 14 ± 0.34 mm | 14 mm | 15±0.38 mm | 15 mm |  |  | 34.5 µM | 56.2 µM | 58.3 µM |  | 
14 | 124 to 126 °C |  | Cc1ccc(C(C)C)c(OCc2nnc(SCc3cn(C(=O)Nc4ccccc4C)nn3)o2)c1 [Compound 17, 4-((5-((2-isopropyl-5-methylphenoxy)methyl)-1,3,4-oxadiazol-2-ylthio)methyl)-N-o-tolyl-1H-1,2,3-triazole-1-carboxamide] | 12 ± 0.32 mm | 12 mm | 12 ± 0.34 mm | 12 mm |  |  | 9.39 µM | 17.3 µM | 39.1 µM |  | 
15 | 98 to 100 °C |  | Cc1ccc(C(C)C)c(OCc2nnc(S(=O)(=O)Cc3cn(-c4cccc(Br)c4)nn3)o2)c1 [Compound 18, 4-((5-((2-isopropyl-5-methylphenoxy)methyl)-1,3,4-oxadiazol-2-ylsulfonyl)methyl)-1-(3-bromophenyl)-1H-1,2,3-triazole] |  |  |  |  |  |  | 98.2 µM | 118 µM | 95.7 µM |  | 
16 |  |  | COc1cccc2c1C(=O)c1c(O)c3c(c(O)c1C2=O)C[C@@](O)(C(=O)CO)C[C@@H]3O[C@H]1C[C@H](N)[C@H](O)[C@H](C)O1 [Dox, doxorubicin, reference compound] |  |  |  |  |  |  | 1.2 µM | 2.5 µM | 1.8 µM |  | 
17 |  |  | OC(Cn1cncn1)(Cn1cncn1)c1ccc(F)cc1F [Fluconazole, reference compound] |  |  |  |  |  | 16 ± 0.6 mm |  |  |  |  | 
18 |  |  | CO[C@@H]1[C@@H](OC(N)=O)[C@@H](O)[C@H](Oc2ccc3c(O)c(NC(=O)c4ccc(O)c(CC=C(C)C)c4)c(=O)oc3c2C)OC1(C)C [Novobiocin, reference compound] |  |  |  | 10 ± 0.24 mm |  |  |  |  |  |  | 
19 |  | 7.26 ± 1.1 µM | Nc1nc2[nH]cc(CCc3ccc(C(=O)N[C@@H](CCC(=O)O)C(=O)O)cc3)c2c(=O)[nH]1 [Pemetrexed, reference compound] |  |  |  |  |  |  |  |  |  |  | 
